Legend:
[1] = competition ELISA for LPS-binding capacity; parameters: species or system E. coli; conditions: competition with biotinylated LALF32-51 at 0.2 μM; analogous peptides 10 μM to 0.01 μM; FIG. 1A
Procedure: This assay consists on a competition ELISA system (Hardy E., et al (1994) Enhanced ELISA sensitivity using TCA for efficient coating of biologically active LPS or Lipid A to the solid phase. J. Immunol. Meth. Vol. 176:111-116). Polystyrene plates (Costar, USA) were coated with LPS from E. coli 0111:B4 (1 μg/ml) with 0.2% trichloroacetic acid (TCA). Plates were incubated overnight at 37° C. and further washed ten times with 1× phosphate-buffered saline (1×PBS) plus 0.1% tween-20 (washing solution). The binding of analogous peptides to the LPS fixed to the solid surface was evaluated by a competition ELISA with the biotinylated LALF32-51 peptide at 0.2 μM, obtaining a 90% of maximum LPS binding. To estimate the inhibition curves, different concentrations of the analogous peptides were used, from 10 μM to 0.01 μM and the curve of the LALF32-51 peptide as experimental control. The biotinylated LALF32-51 was incubated in the presence of the analogous peptides for 2 h at 37° C. and plates were washed 5 times after that time with washing solution. The biotinylated LALF32-51 bound to LPS was detected by incubating for 45 min at 37° C. with a streptavidin-peroxidase conjugate at a 1:2,000 dilution. Plates were washed 5 times with washing solution and the substrate solution was added (0.05 M citrate-phosphate buffer, pH 5.5, 1 tablet of 3,3′,5,5′-tetramethylbenzidine and 0.025% hydrogen peroxide). After 15 min incubation, the reaction was stopped by adding 2 M sulphuric acid. The absorbance was quantified at 450 nm in a plate reader (Sensident Scan). There is a correlation between optical density values and the LPS-binding capacity of analogous peptides. Analogous peptides with higher LPS-binding capacity show inhibition curves of lower O.D. compared to the inhibition curve of the LALF32-51 peptide.
Analogous peptides with lower LPS-binding capacity present inhibition curves with […], compared to the inhibition curve of the LALF32-51 peptide.
FIG. 1B represents the inhibition percentages of analogous peptides, at a fixed […] concentration, according to their capacity to displace the binding of the biotinylated LALF32-51 (0.2 μM) to LPS adsorbed to the solid surface. % de inhibición={1−(([O.D.]sample−[O.D.]min)/([O.D.]max−[O.D.]min))}×100 [O.D.] sample: Optical density value in the presence of a fixed concentration of analogous peptides; [O.D.] min: ELISA background; [O.D.] max: Optical density value without analogous peptides.

IFN-α gene = IFN-α gene expression in human mononuclear cells (RT-PCR); type: cell-based; conditions: 40 μg/ml, 18 h; for expression of the IFN-α gene compared to the LALF32-51 peptide: FIG. 3B; for expression of the IFN-α gene: mRNA normalized against β-actin, FIG. 3A
Procedure: (§1) For this assay, human mononuclear cells were isolated by a Ficoll-Hypaque gradient from a leukocyte concentrate or “Buffy Coat” of a donor. Up to 5×10^6 were seeded in 24-well plates in RPMI 1640 medium supplemented with 10% calf fetal serum. Each peptide was further added at 40 μg/ml in a 0.1 ml volume of RPMI medium and cells were cultured for 18 h at 37° C. and 5% of CO2. Total RNA was extracted by using the TriReagent method. Afterwards, the expressions of IFN-α, IFN-γ and IL-12 genes were determined by the reverse transcription reaction and PCR amplification (RT-PCR kit, Perkin Elmer). Results are shown as relative amounts of messenger RNA normalized against expression levels of the β-actin housekeeping gene.

IFN-γ gene = IFN-γ gene expression in human mononuclear cells (RT-PCR); type: cell-based; conditions: 40 μg/ml, 18 h; mRNA normalized against β-actin; FIG. 3A
Procedure: as §1

IL-12 gene = IL-12 gene expression in human mononuclear cells (RT-PCR); type: cell-based; conditions: 40 μg/ml, 18 h; mRNA normalized against β-actin; FIG. 3A
Procedure: as §1

TC-1 tumor cells = assay: anti-tumoral effect in the TC-1 tumor model; type: in vivo; conditions: 4 mg per kg s.c.; for survival of mice / tumor progression (tumor mass): at 100 mm^3 tumor volume and after 10 days, FIG. 4; for survival of animals compared to the LALF32-51 peptide: Log Rank, *p<0.05
Procedure: Eight-to-ten weeks-old C57BI/6 female mice were used for this assay (n=10 animals per experimental group). For tumor graft, TC-1 tumor cells derived from C57BI/6 malignant epithelial lung cells were used, being resuspended in phosphate-buffered saline (PBS). An amount of 50,000 cells in a 200 μl volume was inoculated to mice by subcutaneous route in the right hind limb. The first peptide administration was carried out by subcutaneous route in the right flank once tumor reached a 100 mm^3 volume, and the second was carried out after 10 days. In this assay, a 4 mg per kg of weight dose was evaluated (80 μg/mice). Animal survival and tumor mass were the parameters evaluated to measure the anti-tumoral effect peptides of interest, as shown in FIGS. 4A and 4B. […] The Log Rank method was used as statistical analysis for detecting significant differences between groups.

[2] = competition ELISA for heparin-binding capacity; conditions: for heparin binding: peptides at 2 μM with 250 units of heparin, FIG. 2
Procedure: This assay consists on a competition ELISA system, similar to the previously described one. The biotinylated LALF32-51 peptide was adsorbed to polystyrene plates (Costar, USA) in 1×PBS and incubated overnight at 4° C. Analogous peptides L-2, L-8, L-12 and L-20 were mixed at 2 μM with 250 units of heparin (Sodic Heparin, 5,000 U/ml, Liorad) in 1×PBS plus 0.1% of bovine serum albumin (BSA). Afterwards, mixes were added to an ELISA plate containing 0.02 μM of the biotinylated LALF32-51 peptide adsorbed to the solid surface. After a 1 h-incubation at room temperature, plates were washed five times with washing solution and the biotinylated LALF32-51 peptide fixed to the solid surface was detected by incubating for 45 min at 37° C. with streptavidin-peroxidase conjugate at a 1:2,000. Afterwards, plates were washed five times with washing solution and the substrate solution was added. After an additional incubation for 15 min, the reactions were stopped with 2 M sulphuric acid solution. The lack of heparin binding to the analogous peptides correlates with the […] optical density, because they are unable to displace the heparin bound to the biotinylated LALF32-51 peptide adsorb to the solid surface. The unlabeled LALF32-51 peptide at a 100× molar excess was used as control of the assay.

Sequence	LPS-binding capacity [1]	expression of the IFN-α gene compared to the LALF32-51 peptide (IFN-α gene)	expression of the IFN-α gene (IFN-α gene)	expression of the IFN-γ gene (IFN-γ gene)	expression of the IL-12 gene (IL-12 gene)	survival of mice (TC-1 tumor cells)	tumor progression (tumor mass) (TC-1 tumor cells)	survival of animals compared to the LALF32-51 peptide (TC-1 tumor cells)	heparin binding [2]	heparin binding (assay control) ([2]; unlabeled peptide at a 100× molar excess)
HYAIKPTFRRLKWKYKGKFW [Peptide L-3, alanine-substituted analogue of LALF 32-51]	higher LPS binding capacity	–	–	–	–	–	–	–	–	–
HYRIKPTARRLKWKYKGKFW [Peptide L-8, alanine-substituted analogue of LALF 32-51]	lose the capacity to bind LPS	more effective	capable of inducing the expression	capable of inducing the expression	capable of inducing the expression	prolonging survival of mice	effective for inhibiting tumor progression	significantly increase the survival of animals	unable to bind heparin	–
HYRIKPTFARLKWKYKGKFW [Peptide L-9, alanine-substituted analogue of LALF 32-51]	retaining that capacity	–	–	–	–	–	–	–	–	–
HYRIKPTFRRLAWKYKGKFW [Peptide L-12, alanine-substituted analogue of LALF 32-51]	lose the capacity to bind LPS	more effective	capable of inducing the expression	capable of inducing the expression	capable of inducing the expression	prolonging survival of mice	effective for inhibiting tumor progression	significantly increase the survival of animals	unable to bind heparin	–
HYRIKPTFRRLKWKYKGKAW [Peptide L-19, alanine-substituted analogue of LALF 32-51]	retaining that capacity	–	–	–	–	–	–	–	–	–
HYRIKPTFRRLKWKYKGKFA [Peptide L-20, alanine-substituted analogue of LALF 32-51]	lose the capacity to bind LPS	–	capable of inducing the expression	capable of inducing the expression	capable of inducing the expression	prolonging survival of mice	effective for inhibiting tumor progression	significantly increase the survival of animals	unable to bind heparin	–
HYRIKPTFRRLKWKYKGKFW [LALF32-51, reference compound]	–	–	–	–	–	–	–	–	–	binding to heparin

— patent US8283324B2, “Immunomodulatory and anti-tumour peptides” (Centro de Ingenieria Genetica y Biotecnologia, priority 2006, dated 2012)
